The compounds below were run against T1, ATM (Homo sapiens, UniProt Q13315) (assay: In vitro ATM inhibition assay (phosphorylation of GSTp53N66 on serine 15)).
T1 construct: ATM protein was immunoprecipitated from HeLa cell nuclear extract; endogenous in cells; host or cells: HeLa cell nuclear extract (immunoprecipitate)
Type: biochemical
Description: In vitro ATM inhibition Assays
In order to assess the inhibitory action of the compounds against ATM in vitro, the following assay was used to determine IC50 values.
ATM protein was immunoprecipitated from HeLa cell nuclear extract using rabbit polyclonal anti-sera raised to the C-terminal ˜500 amino-acid residues of the human ATM protein. The immunoprecipitation was performed according to the methodology described by Banin, S. et al. (1998). 10 μl of immunoprecipitated ATM in Buffer C (50 mM Hepes, pH 7.4, 6 mM MgCl2, 150 mM NaCl, 0.1 mM sodium orthovanadate, 4 mM MnCl2, 0.1 mM dithiothreitol, 10% glycerol) was added to 32.5 μl of buffer C containing 1 μg of the ATM substrate GSTp53N66 in a V-bottomed 96 well polypropylene plate. The GSTp53N66 substrate is the amino terminal 66 amino acid residues of human wild type p53 fused to glutathione S-transferase. ATM phosphorylates p53 on the residue serine 15 (Banin, S. et al. (1998)). Varying concentrations of inhibitor were then added. […] After 10 minutes of incubation at 37° C., the reactions were initiated by the addition of 5 μl of 500 μM Na-ATP. After 1 hour with shaking at 37° C., 150 μl of phosphate buffered saline (PBS) was added to the reaction and the plate centrifuged at 1500 rpm for 10 minutes. 5 μl of the reaction was then transferred to a 96 well opaque white plate containing 45 μl of PBS to allow the GSTp53N66 substrate to bind to the plate wells. The plate was covered and incubated at room temperature for 1 hour with shaking before discarding the contents. The plate wells were washed twice by the addition of PBS prior to the addition of 3% (w/v) bovine serum albumin (BSA) in PBS. The plate was incubated at room temperature for 1 hour with shaking before discarding the contents and washing twice with PBS. To the wells, 50 μl of a 1:10,000 dilution of primary phosphoserine-15 antibody (Cell Signaling Technology, #9284L) in 3% BSA/PBS was added to detect the phosphorylation event on the serine 15 residue of p53 elicited by the ATM kinase. After 1 hour of incubation at room temperature with shaking, the wells were washed four times with PBS prior to the addition of an anti-rabbit HRP conjugated secondary antibody (Pierce, 31462) with shaking for 1 hour at room temperature. The wells were then washed four times with PBS before the addition of chemiluminescence reagent (NEN Renaissance, NEL105). The plate was then shaken briefly, covered with a transparent plate seal and transferred to a TopCount NXT for chemiluminescent counting. Counts per second, following a one second counting time, were recorded for each reaction.
The enzyme activity for each compound is then calculated using the following equation: […]

T1 sequence (Q13315 whole entry): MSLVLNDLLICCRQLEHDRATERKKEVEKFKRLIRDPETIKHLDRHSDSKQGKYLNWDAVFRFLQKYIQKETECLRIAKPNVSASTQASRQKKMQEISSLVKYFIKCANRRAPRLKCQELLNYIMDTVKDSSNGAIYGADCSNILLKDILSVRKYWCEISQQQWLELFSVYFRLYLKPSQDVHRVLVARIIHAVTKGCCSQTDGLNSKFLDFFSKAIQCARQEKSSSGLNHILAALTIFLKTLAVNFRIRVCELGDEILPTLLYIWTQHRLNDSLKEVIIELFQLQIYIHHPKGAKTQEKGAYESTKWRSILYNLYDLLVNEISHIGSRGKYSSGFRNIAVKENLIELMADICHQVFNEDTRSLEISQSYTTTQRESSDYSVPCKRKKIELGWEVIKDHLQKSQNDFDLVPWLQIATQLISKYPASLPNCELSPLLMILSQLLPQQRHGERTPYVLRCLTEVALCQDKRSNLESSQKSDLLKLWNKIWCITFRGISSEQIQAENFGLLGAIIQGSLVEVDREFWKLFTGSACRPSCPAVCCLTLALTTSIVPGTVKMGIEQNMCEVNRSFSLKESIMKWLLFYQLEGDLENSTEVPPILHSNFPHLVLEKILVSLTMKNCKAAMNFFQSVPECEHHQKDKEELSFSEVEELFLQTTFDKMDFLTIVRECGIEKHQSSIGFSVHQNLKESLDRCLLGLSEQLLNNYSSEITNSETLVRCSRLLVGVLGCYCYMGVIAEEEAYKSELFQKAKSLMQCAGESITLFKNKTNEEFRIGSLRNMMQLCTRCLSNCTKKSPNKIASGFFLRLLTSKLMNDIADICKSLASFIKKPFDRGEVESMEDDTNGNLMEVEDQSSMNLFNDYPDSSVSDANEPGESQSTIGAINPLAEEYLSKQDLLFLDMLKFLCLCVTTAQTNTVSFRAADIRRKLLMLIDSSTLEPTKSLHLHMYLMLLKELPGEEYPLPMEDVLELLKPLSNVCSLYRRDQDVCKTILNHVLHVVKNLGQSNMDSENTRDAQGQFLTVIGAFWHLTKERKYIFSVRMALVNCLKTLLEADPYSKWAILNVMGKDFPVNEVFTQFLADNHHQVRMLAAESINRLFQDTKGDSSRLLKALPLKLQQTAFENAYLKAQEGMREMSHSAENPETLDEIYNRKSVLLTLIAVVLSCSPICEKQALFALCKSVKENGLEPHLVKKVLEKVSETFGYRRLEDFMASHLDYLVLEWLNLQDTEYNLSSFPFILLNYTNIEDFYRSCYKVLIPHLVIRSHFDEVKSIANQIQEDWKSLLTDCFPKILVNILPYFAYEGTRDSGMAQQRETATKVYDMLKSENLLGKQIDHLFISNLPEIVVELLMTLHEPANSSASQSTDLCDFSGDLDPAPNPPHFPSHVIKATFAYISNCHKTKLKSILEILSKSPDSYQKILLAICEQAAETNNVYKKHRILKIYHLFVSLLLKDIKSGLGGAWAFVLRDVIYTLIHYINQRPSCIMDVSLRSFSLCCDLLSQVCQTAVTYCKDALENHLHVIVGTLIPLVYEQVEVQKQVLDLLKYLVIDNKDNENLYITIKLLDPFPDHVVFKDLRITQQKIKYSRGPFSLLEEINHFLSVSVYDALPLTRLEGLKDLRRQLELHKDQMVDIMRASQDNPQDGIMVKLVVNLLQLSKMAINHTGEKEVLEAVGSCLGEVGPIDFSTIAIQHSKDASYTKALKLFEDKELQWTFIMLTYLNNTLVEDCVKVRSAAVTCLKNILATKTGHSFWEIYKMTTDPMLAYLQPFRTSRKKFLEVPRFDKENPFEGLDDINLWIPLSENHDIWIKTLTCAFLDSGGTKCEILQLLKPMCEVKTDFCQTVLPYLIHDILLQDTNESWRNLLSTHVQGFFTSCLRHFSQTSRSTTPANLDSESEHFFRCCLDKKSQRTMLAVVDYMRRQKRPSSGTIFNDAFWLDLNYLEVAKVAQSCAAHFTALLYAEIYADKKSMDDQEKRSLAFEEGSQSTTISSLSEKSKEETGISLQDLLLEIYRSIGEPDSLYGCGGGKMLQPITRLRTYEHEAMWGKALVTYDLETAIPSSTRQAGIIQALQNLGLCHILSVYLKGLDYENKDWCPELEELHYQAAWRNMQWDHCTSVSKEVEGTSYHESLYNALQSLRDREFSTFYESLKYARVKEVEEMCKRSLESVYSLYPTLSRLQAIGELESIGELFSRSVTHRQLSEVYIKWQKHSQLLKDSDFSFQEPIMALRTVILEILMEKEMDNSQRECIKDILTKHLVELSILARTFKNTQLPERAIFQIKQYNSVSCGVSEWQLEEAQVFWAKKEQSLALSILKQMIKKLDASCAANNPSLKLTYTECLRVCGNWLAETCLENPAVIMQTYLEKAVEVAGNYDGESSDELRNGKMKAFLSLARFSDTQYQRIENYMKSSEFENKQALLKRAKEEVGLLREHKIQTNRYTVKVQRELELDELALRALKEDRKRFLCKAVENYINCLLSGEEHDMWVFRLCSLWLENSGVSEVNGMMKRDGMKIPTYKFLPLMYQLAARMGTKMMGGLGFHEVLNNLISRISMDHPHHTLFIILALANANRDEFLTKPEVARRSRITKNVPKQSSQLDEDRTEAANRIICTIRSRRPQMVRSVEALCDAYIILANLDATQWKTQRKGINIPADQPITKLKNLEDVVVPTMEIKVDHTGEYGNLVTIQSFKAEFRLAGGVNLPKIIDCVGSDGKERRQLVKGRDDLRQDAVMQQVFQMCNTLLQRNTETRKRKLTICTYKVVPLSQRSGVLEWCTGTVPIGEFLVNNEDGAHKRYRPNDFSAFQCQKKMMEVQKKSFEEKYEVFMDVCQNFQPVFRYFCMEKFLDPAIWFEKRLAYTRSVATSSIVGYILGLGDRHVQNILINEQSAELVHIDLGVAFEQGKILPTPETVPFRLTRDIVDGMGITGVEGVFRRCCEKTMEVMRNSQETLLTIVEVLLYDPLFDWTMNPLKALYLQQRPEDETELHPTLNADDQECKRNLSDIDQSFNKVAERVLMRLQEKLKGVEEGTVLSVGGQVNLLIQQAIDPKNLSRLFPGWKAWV

Row | IC50 | SMILES
1 | < 200 nM | O=C(Nc1ccc(-c2cc(=O)cc(N3CCOCC3)o2)c2c1Cc1ccccc1S2)c1ccc2nsnc2c1 [Compound 112]
2 | < 200 nM | COC(=O)CC(=O)Nc1ccc2c(c1)Cc1cccc(-c3cc(=O)cc(N4CCOCC4)o3)c1S2 [Compound 23]
3 | < 200 nM | O=C(O)C1CC1C(=O)Nc1ccc2c(c1)Cc1cccc(-c3cc(=O)cc(N4CCOCC4)o3)c1S2 (stereo not drawn) [Compound 49]
4 | < 200 nM | O=C(CN(CCO)CCO)Nc1ccc2c(c1)Cc1cccc(-c3cc(=O)cc(N4CCOCC4)o3)c1S2 [Compound 54]
5 | < 200 nM | NCCNCC(=O)Nc1ccc2c(c1)Cc1cccc(-c3cc(=O)cc(N4CCOCC4)o3)c1S2 [Compound 57]
6 | < 200 nM | COc1cc(C(=O)Nc2ccc3c(c2)Cc2cccc(-c4cc(=O)cc(N5CCOCC5)o4)c2S3)cc(OC)c1OC [Compound 38]
7 | < 200 nM | O=C(CCSc1ncn[nH]1)Nc1ccc2c(c1)Cc1cccc(-c3cc(=O)cc(N4CCOCC4)o3)c1S2 [Compound 82]
8 | < 200 nM | CC(=O)OCC(=O)Nc1ccc2c(c1)Cc1cccc(-c3cc(=O)cc(N4CCOCC4)o3)c1S2 [Compound 40]
9 | < 200 nM | O=C(CCN1CCCCC1)Nc1ccc2c(c1)Cc1cccc(-c3cc(=O)cc(N4CCOCC4)o3)c1S2 [Compound 69]
10 | < 200 nM | O=C(NCCN1CCOCC1)c1ccc2c(c1)Sc1cccc(-c3cc(=O)cc(N4CCOCC4)o3)c1S2 [Compound 177]
11 | < 20000 nM | O=c1cc(-c2ccccc2Sc2ccccc2)oc(N2CCOCC2)c1 [Compound 9, 2-(2-Phenylsulfanyl-phenyl)-6-morpholin-4-yl-pyran-4-one]
12 | < 200 nM | O=C(Nc1ccc(-c2cc(=O)cc(N3CCOCC3)o2)c2c1Cc1ccccc1S2)c1cccnc1 [Compound 119]
13 | < 20000 nM | O=c1cc(-c2ccc(F)c3c(=O)c4ccccc4sc23)oc(N2CCOCC2)c1 [Compound 13, 2-(1-Fluoro-9-oxo-9H-thioxanthen-4-yl)-6-morpholin-4-yl-pyran-4-one]
14 | < 200 nM | O=C(NCc1ccncc1)c1ccc2c(c1)Sc1cccc(-c3cc(=O)cc(N4CCOCC4)o3)c1S2 [Compound 172]
15 | < 200 nM | COC(=O)CCCC(=O)Nc1ccc2c(c1)Cc1cccc(-c3cc(=O)cc(N4CCOCC4)o3)c1S2 [Compound 25]
16 | < 200 nM | COC(=O)CCC(=O)Nc1ccc2c(c1)Cc1cccc(-c3cc(=O)cc(N4CCOCC4)o3)c1S2 [Compound 39]
17 | < 200 nM | O=C(NCC1CCCO1)c1ccc2c(c1)Sc1cccc(-c3cc(=O)cc(N4CCOCC4)o3)c1S2 (stereo not drawn) [Compound 149]
18 | < 200 nM | Nc1ccc2c(c1)Cc1cccc(-c3cc(=O)cc(N4CCOCC4)o3)c1S2 [Compound 20, 2-(7-Amino-9H-thioxanthen-4-yl)-6-morpholin-4-yl-pyran-4-one]
19 | < 200 nM | CCCNC(=O)c1ccc2c(c1)Sc1cccc(-c3cc(=O)cc(N4CCOCC4)o3)c1S2 [Compound 144]
20 | < 200 nM | O=C(CCN1CCCC1)Nc1ccc2c(c1)Cc1cccc(-c3cc(=O)cc(N4CCOCC4)o3)c1S2 [Compound 76]
21 | < 200 nM | O=C(CCN(CCO)CCO)Nc1ccc2c(c1)Cc1cccc(-c3cc(=O)cc(N4CCOCC4)o3)c1S2 [Compound 72]
22 | < 200 nM | COC(=O)C(=O)Nc1ccc(-c2cc(=O)cc(N3CCOCC3)o2)c2c1Cc1ccccc1S2 [Compound 116]
23 | < 200 nM | C[C@@H]1CN(C(=O)c2ccc3c(c2)Sc2cccc(-c4cc(=O)cc(N5CCOCC5)o4)c2S3)C[C@H](C)O1 [Compound 159]
24 | < 200 nM | COc1ccc(CNCCC(=O)Nc2ccc3c(c2)Cc2cccc(-c4cc(=O)cc(N5CCOCC5)o4)c2S3)cc1 [Compound 81]
25 | < 200 nM | O=C(O)CCC(=O)Nc1ccc2c(c1)Cc1cccc(-c3cc(=O)cc(N4CCOCC4)o3)c1S2 [Compound 48]
26 | < 200 nM | Cc1cc(C(=O)Nc2ccc3c(c2)Cc2cccc(-c4cc(=O)cc(N5CCOCC5)o4)c2S3)no1 [Compound 45]
27 | < 200 nM | CN1CCN(CC(=O)Nc2ccc3c(c2)Cc2cccc(-c4cc(=O)cc(N5CCOCC5)o4)c2S3)CC1 [Compound 53]

Row | IC50 | SMILES
28 | < 200 nM | O=C(Nc1ccc(-c2cc(=O)cc(N3CCOCC3)o2)c2c1Cc1ccccc1S2)c1ccno1 [Compound 126]
29 | < 200 nM | O=C(NCCCN1CCOCC1)c1ccc2c(c1)Sc1cccc(-c3cc(=O)cc(N4CCOCC4)o3)c1S2 [Compound 178]
30 | < 200 nM | O=C(CN1CCCCC1)Nc1ccc2c(c1)Cc1cccc(-c3cc(=O)cc(N4CCOCC4)o3)c1S2 [Compound 51]
31 | < 200 nM | O=C(CSc1ncn[nH]1)Nc1ccc2c(c1)Cc1cccc(-c3cc(=O)cc(N4CCOCC4)o3)c1S2 [Compound 64]
32 | < 200 nM | O=C(NCC1CC1)c1ccc2c(c1)Sc1cccc(-c3cc(=O)cc(N4CCOCC4)o3)c1S2 [Compound 152]
33 | < 200 nM | O=C(NCC(F)(F)F)c1ccc2c(c1)Sc1cccc(-c3cc(=O)cc(N4CCOCC4)o3)c1S2 [Compound 148]
34 | < 200 nM | CC(=O)N1CCC(C(=O)Nc2ccc3c(c2)Cc2cccc(-c4cc(=O)cc(N5CCOCC5)o4)c2S3)CC1 [Compound 36]
35 | < 200 nM | O=C(CCNCCO)Nc1ccc2c(c1)Cc1cccc(-c3cc(=O)cc(N4CCOCC4)o3)c1S2 [Compound 74]
36 | < 200 nM | CC(C)(C)OC(=O)N1CCN(CCNC(=O)c2ccc3c(c2)Sc2cccc(-c4cc(=O)cc(N5CCOCC5)o4)c2S3)CC1 [Compound 180]
37 | < 200 nM | O=C(Nc1ccc2c(c1)Cc1cccc(-c3cc(=O)cc(N4CCOCC4)o3)c1S2)c1cccs1 [Compound 30]
38 | < 200 nM | O=C(Cc1cccs1)Nc1ccc2c(c1)Cc1cccc(-c3cc(=O)cc(N4CCOCC4)o3)c1S2 [Compound 31]
39 | < 200 nM | CSc1ncccc1C(=O)Nc1ccc(-c2cc(=O)cc(N3CCOCC3)o2)c2c1Cc1ccccc1S2 [Compound 122]
40 | < 200 nM | O=C(CN1CCCNCC1)Nc1ccc2c(c1)Cc1cccc(-c3cc(=O)cc(N4CCOCC4)o3)c1S2 [Compound 60]
41 | < 200 nM | COC(=O)C(=O)Nc1ccc2c(c1)Cc1cccc(-c3cc(=O)cc(N4CCOCC4)o3)c1S2 [Compound 34]
42 | < 200 nM | O=C(NCCc1cnc[nH]1)c1ccc2c(c1)Sc1cccc(-c3cc(=O)cc(N4CCOCC4)o3)c1S2 [Compound 176]
43 | < 200 nM | O=C(CNCCN1CCOCC1)Nc1ccc2c(c1)Cc1cccc(-c3cc(=O)cc(N4CCOCC4)o3)c1S2 [Compound 67]
44 | < 200 nM | N#Cc1ccc(C(=O)Nc2ccc(-c3cc(=O)cc(N4CCOCC4)o3)c3c2Cc2ccccc2S3)cc1 [Compound 113]
45 | < 200 nM | CC(=O)Oc1cccc(C(=O)Nc2ccc(-c3cc(=O)cc(N4CCOCC4)o3)c3c2Cc2ccccc2S3)c1C [Compound 123]
46 | < 200 nM | Cn1nc(O)cc1C(=O)Nc1ccc2c(c1)Cc1cccc(-c3cc(=O)cc(N4CCOCC4)o3)c1S2 [Compound 35]
47 | < 200 nM | N#Cc1cccc(NC(=O)Nc2ccc(-c3cc(=O)cc(N4CCOCC4)o3)c3c2Cc2ccccc2S3)c1 [Compound 117]
48 | < 200 nM | CC1CN(C(=O)c2ccc3c(c2)Sc2cccc(-c4cc(=O)cc(N5CCOCC5)o4)c2S3)CC(C)O1 (stereo not drawn) [Compound 158]
49 | < 200 nM | O=C(NC1CCCCC1)c1ccc2c(c1)Sc1cccc(-c3cc(=O)cc(N4CCOCC4)o3)c1S2 [Compound 151]
50 | < 200 nM | O=c1cc(-c2cccc3c2Oc2ccccc2S3)oc(N2CCOCC2)c1 [Compound 5, 2-Phenoxathiin-4-yl-6-morpholin-4-yl-pyran-4-one]
51 | < 200 nM | O=C(Nc1ccc2c(c1)Cc1cccc(-c3cc(=O)cc(N4CCOCC4)o3)c1S2)c1cccnc1 [Compound 26]
52 | < 200 nM | O=C(NC1CCC1)c1ccc2c(c1)Sc1cccc(-c3cc(=O)cc(N4CCOCC4)o3)c1S2 [Compound 153]
53 | < 200 nM | NCCC(=O)Nc1ccc2c(c1)Cc1cccc(-c3cc(=O)cc(N4CCOCC4)o3)c1S2 [Compound 84]
54 | < 200 nM | O=C(Nc1ccc2c(c1)Cc1cccc(-c3cc(=O)cc(N4CCOCC4)o3)c1S2)c1cc(F)cc2c1OCOC2 [Compound 44]

Reference: patent US7049313B2, “ATM inhibitors” (Kudos Pharmaceuticals Ltd., priority 2002, dated 2006)
